Laboratory results from patent US20120238549A1, “Nuclear Hormone Receptor Modulators” (ABBOTT LABORATORIES, priority 2011, published 2012).

target: T1, Glucocorticoid Receptor (GR) (Homo sapiens, UniProt P04150); experiment: GR Florescence Polarization Assay (PolarScreen Glucocorticoid Receptor Competitor Assay, Red); settings: Fluorescense polarization binding ranges; competition with fluorescent glucocorticoid, incubated overnight at 4° C.
T1 construct: purchased Invitrogen P2893
T1 sequence (P04150 1-777): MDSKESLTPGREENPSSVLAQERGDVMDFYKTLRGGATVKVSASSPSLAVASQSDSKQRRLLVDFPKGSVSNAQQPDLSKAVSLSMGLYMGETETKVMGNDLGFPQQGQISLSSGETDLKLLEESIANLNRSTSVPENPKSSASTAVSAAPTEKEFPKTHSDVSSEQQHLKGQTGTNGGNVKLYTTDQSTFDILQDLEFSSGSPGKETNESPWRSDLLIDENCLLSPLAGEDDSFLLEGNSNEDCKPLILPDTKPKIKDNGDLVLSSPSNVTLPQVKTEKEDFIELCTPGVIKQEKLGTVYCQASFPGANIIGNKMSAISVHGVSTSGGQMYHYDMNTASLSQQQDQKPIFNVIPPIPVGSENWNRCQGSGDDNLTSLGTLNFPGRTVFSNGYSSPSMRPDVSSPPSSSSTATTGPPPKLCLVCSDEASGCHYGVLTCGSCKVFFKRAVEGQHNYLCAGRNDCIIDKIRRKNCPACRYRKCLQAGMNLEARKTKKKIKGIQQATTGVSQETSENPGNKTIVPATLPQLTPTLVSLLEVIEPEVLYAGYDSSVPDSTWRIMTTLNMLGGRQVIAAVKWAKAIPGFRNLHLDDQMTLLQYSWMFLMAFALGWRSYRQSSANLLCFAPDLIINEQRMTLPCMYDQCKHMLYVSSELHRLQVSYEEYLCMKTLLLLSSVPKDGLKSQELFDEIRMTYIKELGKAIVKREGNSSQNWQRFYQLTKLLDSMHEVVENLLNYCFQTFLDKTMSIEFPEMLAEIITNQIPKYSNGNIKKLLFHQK
Description: GR Florescence Polarization Assay Florescence polarization assays were carried out using the PolarScreen™ Glucocorticoid Receptor Competitor Assay, Red from Invitrogen (P2893). The assay buffer was prepared according to the manufacturer's protocol and used to dilute the fluorescent glucocorticoid and GR. Compounds were prepared and serial diluted 1:4 in DMSO. Compound, fluorescent glucocorticoid and GR were added in a final volume of 20 μL and incubated overnight at 4° C. Fluorescent polarization was measured on the Perkinelmer Envision®.

IC50 [nM]	SMILES
< 100	Cc1ncccc1NC(=O)c1ccc2c(c1)CCCC1CC(O)(COC(C)C(F)(F)F)CCC21Cc1ccccc1 (mixture of isomers) [Example 100]
< 100	Cc1ncccc1NC(=O)c1ccc2c(c1)CCC[C@@H]1C[C@@](O)(C(F)(F)F)CC[C@@]21Cc1ccccc1 (racemic) [Example 3, (7aR,9R,11aS)-11a-Benzyl-9-hydroxy-9-trifluoromethyl-6,7,7a,8,9,10,11,11a-octahydro-5H-dibenzo[a,c]cycloheptene-3-carboxylic acid (2-methyl-pyridin-3-yl)-amide; compound with (7aS,9S,11aR)-11a-benzyl-9-hydroxy-9-trifluoromethyl-6,7,7a,8,9,10,11,11a-octahydro-5H-dibenzo[a,c]cycloheptene-3-carboxylic acid (2-methyl-pyridin-3-yl)-amide]
< 100	COC[C@@]1(O)CC[C@@]2(Cc3ccccc3)c3ccc(C(=O)Nc4cccnc4C)cc3CCC[C@H]2C1 (racemic) [Example 18, (7aS,9R,11aS)-11a-Benzyl-9-hydroxy-9-methoxymethyl-6,7,7a,8,9,10,11,11a-octahydro-5H-dibenzo[a,c]cycloheptene-3-carboxylic acid (2-methyl-pyridin-3-yl)-amide; compound with (7aR,9S,11aR)-11a-benzyl-9-hydroxy-9-methoxymethyl-6,7,7a,8,9,10,11,11a-octahydro-5H-dibenzo[a,c]cycloheptene-3-carboxylic acid (2-methyl-pyridin-3-yl)-amide]
100 to 1000	CC#C[C@]1(O)CC[C@@]2(Cc3ccccc3)c3ccc(C(=O)Nc4cccnc4C)cc3CCC[C@H]2C1 (racemic) [Example 29, (7aS,9S,11aS)-11a-Benzyl-9-hydroxy-9-prop-1-ynyl-6,7,7a,8,9,10,11,11a-octahydro-5H-dibenzo[a,c]cycloheptene-3-carboxylic acid (2-methyl-pyridin-3-yl)-amide; compound with (7aR,9R,11aR)-11a-benzyl-9-hydroxy-9-prop-1-ynyl-6,7,7a,8,9,10,11,11a-octahydro-5H-dibenzo[a,c]cycloheptene-3-carboxylic acid (2-methyl-pyridin-3-yl)-amide]
< 100	Cc1ncccc1NC(=O)c1ccc2c(c1)CCC[C@H]1C[C@](C)(O)CC[C@@]21Cc1ccccc1 (racemic) [Example 30, (7aS,9R,11aS)-11a-Benzyl-9-hydroxy-9-methyl-6,7,7a,8,9,10,11,11a-octahydro-5H-dibenzo[a,c]cycloheptene-3-carboxylic acid (2-methyl-pyridin-3-yl)-amide; compound with (7aR,9S,11aR)-11a-benzyl-9-hydroxy-9-methyl-6,7,7a,8,9,10,11,11a-octahydro-5H-dibenzo[a,c]cycloheptene-3-carboxylic acid (2-methyl-pyridin-3-yl)-amide]
< 100	CCC[C@@]1(O)CC[C@@]2(Cc3ccccc3)c3ccc(C(=O)Nc4cccnc4C)cc3CCC[C@H]2C1 (racemic) [Example 31, (7aS,9R,11aS)-11a-Benzyl-9-hydroxy-9-propyl-6,7,7a,8,9,10,11,11a-octahydro-5H-dibenzo[a,c]cycloheptene-3-carboxylic acid (2-methyl-pyridin-3-yl)-amide; compound with (7aR,9S,11aR)-11a-benzyl-9-hydroxy-9-propyl-6,7,7a,8,9,10,11,11a-octahydro-5H-dibenzo[a,c]cycloheptene-3-carboxylic acid (2-methyl-pyridin-3-yl)-amide]
< 100	C#C[C@]1(O)CC[C@@]2(Cc3ccccc3)c3ccc(C(=O)Nc4cccnc4C)cc3CCC[C@H]2C1 (racemic) [Example 32, (7aS,9S,11aS)-11a-Benzyl-9-ethynyl-9-hydroxy-6,7,7a,8,9,10,11,11a-octahydro-5H-dibenzo[a,c]cycloheptene-3-carboxylic acid (2-methyl-pyridin-3-yl)-amide; compound with (7aR,9R,11aR)-11a-benzyl-9-ethynyl-9-hydroxy-6,7,7a,8,9,10,11,11a-octahydro-5H-dibenzo[a,c]cyclo heptene-3-carboxylic acid (2-methyl-pyridin-3-yl)-amide]

The remaining lines, values behind:

SMILES	IC50 [nM]
Cc1ncccc1NC(=O)c1ccc2c(c1)CCC[C@@H]1CC(=O)CC[C@@]21Cc1ccccc1 (racemic) [Example 8, (7aR,11aS)-11a-Benzyl-9-oxo-6,7,7a,8,9,10,11,11a-octahydro-5H-dibenzo[a,c]cycloheptene-3-carboxylic acid (2-methyl-pyridin-3-yl)-amide; compound with (7aS,11aR)-11a-benzyl-9-oxo-6,7,7a,8,9,10,11,11a-octahydro-5H-dibenzo[a,c]cycloheptene-3-carboxylic acid (2-methyl-pyridin-3-yl)-amide]	< 100
Cc1ncccc1NC(=O)c1ccc2c(c1)CCC[C@H]1CC(=O)CC[C@@]21Cc1ccccc1 (racemic) [Example 11, (7aS,11aS)-11a-Benzyl-9-oxo-6,7,7a,8,9,10,11,11a-octahydro-5H-dibenzo[a,c]cycloheptene-3-carboxylic acid (2-methyl-pyridin-3-yl)-amide; compound with (7aR,11aR)-11a-benzyl-9-oxo-6,7,7a,8,9,10,11,11a-octahydro-5H-dibenzo[a,c]cycloheptene-3-carboxylic acid (2-methyl-pyridin-3-yl)-amide]	< 100
Cc1ncccc1NC(=O)c1ccc2c(c1)CCC[C@H]1C[C@@H](O)CC[C@@]21Cc1ccccc1 (racemic) [Example 16, (7aS,9S,11aS)-11a-Benzyl-9-hydroxy-6,7,7a,8,9,10,11,11a-octahydro-5H-dibenzo[a,c]cycloheptene-3-carboxylic acid (2-methyl-pyridin-3-yl)-amide; compound with (7aR,9R,11aR)-11a-benzyl-9-hydroxy-6,7,7a,8,9,10,11,11a-octahydro-5H-dibenzo[a,c]cycloheptene-3-carboxylic acid (2-methyl-pyridin-3-yl)-amide]	100 to 1000
Cc1ncccc1NC(=O)c1ccc2c(c1)CCC[C@H]1C[C@H](O)CC[C@@]21Cc1ccccc1 (racemic) [Example 17, (7aS,9R,11aS)-11a-Benzyl-9-hydroxy-6,7,7a,8,9,10,11,11a-octahydro-5H-dibenzo[a,c]cycloheptene-3-carboxylic acid (2-methyl-pyridin-3-yl)-amide; compound with (7aR,9S,11aR)-11a-benzyl-9-hydroxy-6,7,7a,8,9,10,11,11a-octahydro-5H-dibenzo[a,c]cycloheptene-3-carboxylic acid (2-methyl-pyridin-3-yl)-amide]	< 100
Cc1ncccc1NC(=O)c1ccc2c(c1)CCCC1=C[C@](C)(O)CC[C@]12Cc1ccccc1 (racemic) [Example 19, (9R,11aS)-11a-Benzyl-9-hydroxy-9-methyl-6,7,9,10,11,11a-hexahydro-5H-dibenzo[a,c]cycloheptene-3-carboxylic acid (2-methyl-pyridin-3-yl)-amide; compound with (9S,11aR)-11a-benzyl-9-hydroxy-9-methyl-6,7,9,10,11,11a-hexahydro-5H-dibenzo[a,c]cycloheptene-3-carboxylic acid (2-methyl-pyridin-3-yl)-amide]	< 100
CC[C@@]1(O)CC[C@@]2(Cc3ccccc3)c3ccc(C(=O)Nc4cccnc4C)cc3C(=O)CC[C@H]2C1 (racemic) [Example 23, (7aS,9R,11aS)-11a-Benzyl-9-ethyl-9-hydroxy-5-oxo-6,7,7a,8,9,10,11,11a-octahydro-5H-dibenzo[a,c]cycloheptene-3-carboxylic acid (2-methyl-pyridin-3-yl)-amide; compound with (7aR,9S,11aR)-11a-benzyl-9-ethyl-9-hydroxy-5-oxo-6,7,7a,8,9,10,11,11a-octahydro-5H-dibenzo[a,c]cycloheptene-3-carboxylic acid (2-methyl-pyridin-3-yl)-amide]	< 100
CC#C[C@]1(O)CC[C@@]2(Cc3ccccc3)c3ccc(O)cc3CCC[C@H]2C1 (racemic) [Example 28, (3S,4aS,11bS)-11b-Benzyl-3-prop-1-ynyl-2,3,4,4a,5,6,7,11b-octahydro-1H-dibenzo[a,c]cycloheptene-3,9-diol; compound with (3R,4aR,11bR)-11b-benzyl-3-prop-1-ynyl-2,3,4,4a,5,6,7,11b-octahydro-1H-dibenzo[a,c]cycloheptene-3,9-diol]	100 to 1000
